The results in this text go back to patent US20110275673A1, “INHIBITORS OF SPHINGOSINE KINASE 1” (priority 2008, published 2011).

By IC50 is commonly meant the concentration that inhibits the measured activity by half.

Counter-ions that a name gives are not always drawn.

The target in the assay is T1, SPHK-1 (Homo sapiens, UniProt Q9NYA1).
T1 construct: purchased BPS Bioscience
T1 sequence (Q9NYA1 whole entry): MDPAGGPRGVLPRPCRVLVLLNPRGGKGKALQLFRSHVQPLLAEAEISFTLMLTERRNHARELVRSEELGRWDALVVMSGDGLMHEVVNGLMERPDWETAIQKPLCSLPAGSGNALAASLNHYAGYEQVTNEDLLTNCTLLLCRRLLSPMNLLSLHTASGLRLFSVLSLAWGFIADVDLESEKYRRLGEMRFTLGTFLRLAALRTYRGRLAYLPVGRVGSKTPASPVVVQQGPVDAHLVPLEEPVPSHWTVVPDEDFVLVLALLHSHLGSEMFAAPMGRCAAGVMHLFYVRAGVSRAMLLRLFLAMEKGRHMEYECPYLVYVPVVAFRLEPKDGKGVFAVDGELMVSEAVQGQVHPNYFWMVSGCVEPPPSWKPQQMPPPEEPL
Briefly: Reporter Assay: sphingosine kinase conversion of fluorescein-labeled sphingosine, read on Lab Chip 3000. The class given is biochemical. The following applies: 2 μM Fl-sphingosine, 25 μM ATP, 300 ng/ml SK1, 1 hour at room temperature; from percent conversion of substrate to product; read-out: SPHK-1 IC50 (n =). As for the experimental part: Sphingosine kinase is a 49 kDa enzyme that catalyzes the formation of sphingosine-1-phosphate (S-1-P) from sphingosine.
Fluorescein labeled sphingosine was obtained from Echelon Biosciences (S-100F). Buffer reagents (1 M Hepes, 10 triton x-100, 100% glycerol, dithiothreitol 1 M MgCl2, ATP, 500 mM EDTA and DMSO) were purchased from Sigma. Coating reagent (CR-3), was obtained from Caliper Life Sciences.
0.05% Triton X-100, 2.5% glycerol, 0.1% CR-3, and 0,6% DMSO. Termination butler included 100 mM Hepes (pH 7.5), 40 mM EDTA, 0.05% Triton X-100, 2.5% glycerol, 0.3% CR-3, and 0.6% DMSO.
All assay components were made in reaction buffer. […] The assaylvas allowed to incubate at room temperature sealed and protected from light for 1 hour.
After 1 hour, 10 μl of termination buffer was added to terminate, the reaction, and the plate was read on a Lab Chip 3000. The plate was read for one cycle. The Lab Chip separated substrate and product based on charge.
Results were calculated based on percent conversion of substrate to product using the following formula: […]
Percent inhibition and IC50's for compounds of the invention were determined using the percent conversion values obtained horn the Lab Chip.
For the compound `CCCCCCSCCc1ccc(NC(=O)[C@H]2NCC[C@@H]2O)cc1` [Example 40, (2S,3S)-N-(4-(2-(hexylthio)ethyl)phenyl)-3-hydroxy-pyrrolidine-2-carboxamide], the IC50 stood at 7 nM.

Regarding `CCCCCCCCc1ccc(-c2ccc(NC[C@@H](N)[C@@H](C)O)cc2)cc1` [Example 60, (2R,3R)-3-Amino-4-(4′-octylbiphenyl-4-ylamino)butan-2-ol], the 50% inhibitory concentration (IC50) was found to be 2300 nM.

For `CCCCCCCc1ccc(-c2noc(CNC(=O)[C@H]3NCC[C@@H]3O)n2)cc1` [Example 77, (2S,3S)—N-((3-(4-Heptylphenyl)-1,2,4-oxadiazol-5-yl)methyl)-3-hydroxypyrrolidine-2-carboxamide], the IC50 was 220 nM.

For `CCCCCCCCc1ccc(-c2ccc(NC(=O)[C@@H](N)[C@@H](C)O)cc2)cc1` [Example 59, (2S,3R)-2-Amino-3-hydroxy-N-(4′-octylbiphenyl-4-yl)butanamide], the IC50 amounted to 1100 nM.

On to `O=C(NCc1ccc(-c2noc(C3CCC(F)(F)CC3)n2)cc1)[C@H]1NCC[C@@H]1O` [Example 92, (2S,3S)—N-(4-(5-(4,4-Difluorocyclohexyl)-1,2,4-oxadiazol-3-yl)benzyl)-3-hydroxypyrrolidine-2-carboxamide], for which the IC50 came to 6400 nM.

In the case of `CCCCc1ccc(-c2nc(-c3ccc(CNC(=O)[C@H]4NCC[C@@H]4O)cc3)no2)cc1` [Example 82, (2S,3S)—N-(4-(5-(4-Butylphenyl)-1,2,4-oxadiazol-3-yl)benzyl)-3-hydroxypyrrolidine-2-carboxamide], the IC50 came to 3700 nM.

As for `CCCCCCCC(O)CCCc1ccc(NC(=O)[C@H]2NCC[C@@H]2O)cc1` (stereo partly drawn) [Example 42, (2S,3S)-3-hydroxy-N-(4-(4-hydroxy-undecyl)phenyl) pyrrolidine-2-carboxamide], the IC50 is 120 nM.

As to `O=C(NCc1ccc(-n2cc(CCC3CCCCC3)nn2)cc1)[C@H]1NCC[C@@H]1O` [Example 67, (2S,3S)-(4-(4-(2-Cyclohexylethyl)-1H-1,2,3-triazol-1-yl)benzyl)-3-hydroxypyrrolidine-2-carboxamide], the half-maximal inhibitory concentration (IC50) was 290 nM.

Take `CCCCCCCCOc1ccc(NC(=O)[C@@H](N)[C@@H](C)O)cc1` [Example 18, (2S,3R)-2-Amino-3-hydroxy-N-(4-(octyloxy)phenyl) butanamide]: the IC50 was found to be 460 nM.

On to `CCCCCCCc1ccc(-c2ccc(NC(=O)[C@@H](N)[C@@H](C)O)cc2)nc1` [Example 101, (2S,3R)-2-amino-N-(4-(5-heptylpyridin-2-yl)phenyl)-3-hydroxybutanamide], for which the IC50 was determined as 900 nM.

In the case of `O=C(NCc1ccc2oc(CCC3CCCCC3)cc2c1)[C@H]1NCC[C@@H]1O` [Example 117, (2S,3S)—N-((2-(2-Cyclohexylethyl)benzofuran-5-yl)-methyl)-3-hydroxypyrrolidine-2-carboxamide], the IC50 came out at 430 nM.

Turning to `CCCCCCCCc1cc2cc(CNC(=O)[C@H]3NCC[C@@H]3O)cc(F)c2o1` [Example 118, (2S,3S)—N-((7-Fluoro-2-octylbenzofuran-5-yl)methyl)-3-hydroxypyrrolidine-2-carboxamide], the IC50 was 460 nM.

On to `O=C(NCc1cc(F)c2oc(C3CCCCC3)cc2c1)[C@H]1NCC[C@@H]1O` [Example 122, (2S,3S)—N-((2-Cyclohexyl-7-fluorobenzofuran-5-yl)methyl)-3-hydroxypyrrolidine-2-carboxamide], for which the 50% inhibitory concentration (IC50) was 790 nM.

`C[C@@H](O)[C@H](N)C(=O)Nc1ccc(CCCCCCCOc2ccc(F)cc2)cc1` [Example 17, (2S,3R)-2-Amino-N-(4-(7-(4-fluorophenoxy)heptyl)phenyl)-3-hydroxy-butanamide]: the IC50 amounted to 3600 nM.

Take `CCCCCCCCc1ccc(NC(=O)[C@H]([C@H](C)O)N(CCC)CCC)cc1` [Example 47, (2S,3S)-2-(dipropyl-amino)-3-hydroxy-N-(4-octylphenyl) butanamide]: the IC50 was greater than 1000 nM.

Regarding `CCCCCCSCCCCc1ccc(NC(=O)[C@H]2NCC[C@@H]2O)cc1` [Example 41, (2S,3S)-N-(4-(4-(hexylthio)butyl)phenyl)-3-hydroxy-pyrrolidine-2-carboxamide], the IC50 is 2 nM.

With `O=C(Nc1ccc(CCCCCOc2ccc(F)cc2)cc1)[C@H]1NCC[C@@H]1O` [Example 24, (2S,3S)-N-(4-(5-(4-Fluorophenoxy)pentyl)phenyl)-3-hydroxy-pyrrolidine-2-carboxamide], the IC50 stood at 190 nM.

On to `CCCCCCC(O)CCCc1ccc(NC(=O)[C@@H](N)[C@@H](C)O)cc1` (stereo partly drawn) [Example 35, (2S,3R)-2-amino-3-hydroxy-N-(4-(4-hydroxydecyl)phenyl) butanamide], for which the IC50 came out at 6900 nM.

As for `CCCCCCCCc1cc2c(F)c(CNC(=O)[C@H]3NCC[C@@H]3O)ccc2o1` [Example 121, (2S,3S)—N-((4-Fluoro-2-octylbenzofuran-5-yl)methyl)-3-hydroxypyrrolidine-2-carboxamide], the IC50 was 510 nM.

Consider `C[C@H](NC(=O)[C@H]1NCC[C@@H]1O)c1ccc(-c2noc(CCC3CCC3)n2)cc1` [Example 100, (2S,3S)—N—((S)-1-(4-(5-(2-Cyclobutylethyl)-1,2,4-oxadiazol-3-yl)phenyl)ethyl)-3-hydroxypyrrolidine-2-carboxamide hemi tartrate salt], for which the IC50 was 59 nM.

For the compound `CCCCCCCCc1ccc(NC[C@@H](N)CO)cc1` [Example 10, (R)-2-Amino-3-(4-octylphenyl-amino) propan-1-ol], the IC50 is 5000 nM.

With `O=C(NCc1ccc2oc(CCCOc3ccc(F)cc3)cc2c1)[C@H]1NCC[C@@H]1O` [Example 110, (2S,3S)—N-((2-(3-(4-Fluorophenoxy)propyl)benzofuran-5-yl)methyl)-3-hydroxypyrrolidine-2-carboxamide], the half-maximal inhibitory concentration (IC50) came out at 5200 nM.

Consider `CCCCCCCCc1ccc(NC(=O)[C@@H](NCC2CCCCC2)[C@H](C)O)cc1` [Example 48, (2S,3S)-2-(cyclohexyl-methyl-amino)-3-hydroxy-N-(4-octylphenyl) butanamide], for which the half-maximal inhibitory concentration (IC50) was greater than 1000 nM.

For the compound `CCCCCCc1cc2cc(CNC(=O)[C@H]3NCC[C@@H]3O)ccc2o1` [Example 114, (2S,3S)—N-((2-Hexylbenzofuran-5-yl)methyl)-3-hydroxypyrrolidine-2-carboxamide], the IC50 came out at 530 nM.

Turning to `CCCCCCCCc1ccc(CNC(=O)[C@H]2NCC[C@@H]2O)cc1` [Example 36, (2S,3S)-3-hydroxy-N-(4-octylbenzyl) pyrrolidine-2-carboxamide], the IC50 amounted to 2100 nM.

`CCCCCCCCc1ccc([C@H](C)NC(=O)[C@H]2NCC[C@@H]2O)cc1` [Example 27, (2S,3S)-3-Hydroxy-N-((S)-1-(4-octylphenyl)ethyl) pyrrolidine-2-carboxamide]: the IC50 was found to be 190 nM.

`CCCCCCCc1cc2cc(CNC(=O)[C@H]3NCC[C@@H]3O)ccc2o1` [Example 113, (2S,3S)—N-((2-Heptylbenzofuran-5-yl)methyl)-3-hydroxypyrrolidine-2-carboxamide]: the IC50 came out at 160 nM.

As to `CCCCCCCCc1ccc(NC(=O)[C@@H](N)[C@H](C)O)cc1` [Example 32, (2S,3S)-2-Amino-3-hydroxy-N-(4-octylphenyl) butanamide], the IC50 turned out to be 1100 nM.

Regarding `O=C(NCc1cc(F)c2oc(CC3CCCC3)cc2c1)[C@H]1NCC[C@@H]1O` [Example 120, (2S,3S)—N-((2-(Cyclopentylmethyl)-7-fluorobenzofuran-5-yl)methyl)-3-hydroxypyrrolidine-2-carboxamide], the IC50 is 2300 nM.

`CCCCCCCCCCc1ccc(NC(=O)[C@@H]2C[C@@H](O)CCN2)cc1` [Example 124, (2S,4S)—N-(4-decylphenyl)-4-hydroxypiperidine-2-carboxamide]: the IC50 was 2700 nM.

For the compound `CCCCCCOCc1ccc(NC(=O)[C@@H](N)[C@@H](C)O)cc1` [Example 15, (2S,3R)-2-Amino-N-(4-(hexyloxymethyl)phenyl)-3-hydroxy-butanamide], the IC50 was 8200 nM.

With `CCCCCCCCc1cc2cc(CNC(=O)[C@H]3NCC[C@@H]3O)ccc2o1` [Example 107, (2S,3S)-3-Hydroxy-N-((2-octylbenzofuran-5-yl)methyl)pyrrolidine-2-carboxamide], the IC50 came to 31 nM.

With `CCCCCCCCc1ccc(CCNC(=O)[C@H]2NCC[C@@H]2O)cc1` [Example 44, (2S,3S)-3-hydroxy-N-(4-octylphenethyl) pyrrolidine-2-carboxamide], the IC50 amounted to 6500 nM.

Regarding `O=C(NCc1ccc(-n2cc(CCc3ccccc3)cn2)cc1)[C@H]1NCC[C@@H]1O` [Example 69, (2S,3S)-3-Hydroxy-N-(4-(4-phenethyl-1H-pyrazol-1-yl)benzyl)pyrrolidine-2-carboxamide], the IC50 is 65 nM.

`CCCCCCCCc1ccc(NC(=O)[C@H]2NCC[C@@H]2O)cn1` [Example 26, (2S,3S)-3-Hydroxy-N-(6-octylpyridin-3-yl) pyrrolidine-2-carboxamide]: the IC50 is 3000 nM.

Consider `CCCCCCCCc1cccc(NC(=O)[C@@H](N)[C@@H](C)O)c1` [Example 11, (2S,3R)-2-Amino-3-hydroxy-N-(3-octylphenyl) butanamide], for which the IC50 amounted to 2900 nM.

`O=C(NCc1ccc2oc(C3CCCCC3)cc2c1)[C@H]1NCC[C@@H]1O` [Example 115, (2S,3S)—N-((2-Cyclohexylbenzofuran-5-yl)methyl)-3-hydroxypyrrolidine-2-carboxamide]: the IC50 came to 1200 nM.
